Legend:
BAM7 + Foretinib = compound: CCOC1=CC=CC=C1N=NC2=C(NN(C2=O)C3=NC(=CS3)C4=CC=CC=C4)C [BAM7] + COc1cc2c(Oc3ccc(NC(=O)C4(C(=O)Nc5ccc(F)cc5)CC4)cc3F)ccnc2cc1OCCCN1CCOCC1 [Foretinib] (partner 0.25 µM); assay: relative viability (nuclei count vs DMSO), 5 days (fraction); higher = more cells survive
Procedure, shortened: (§1)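 Cells from lung cancer lines were seeded into 1536-well plates and, one day later, dosed by pin tool. Treatments were either a single drug or a fixed dose of an anchor drug with five library-drug doses (not always all listed) in √10 steps. After 5 days, nuclei were stained in a one-step fixation (final 0.05% Triton X-100, 1% formaldehyde, 1 ug/ml Hoechst) and counted on 4× images, and relative viability is the treated-to-vehicle nuclei ratio, as the median of duplicate plates.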

[1] = compound: CCn1c(-c2nonc2N)nc2c(C#CC(C)(C)O)ncc(OC[C@H]3CCCNC3)c21 + Cc1cc(Nc2cc(N3CCN(C)CC3)nc(Sc3ccc(NC(=O)C4CC4)cc3)n2)n[nH]1 [Tozasertib] (partner 0.1 µM); assay: as above
Procedure, shortened: as §1

Row | Cell Line | relative viability (BAM7 + Foretinib; first compound 0.5 µM) | relative viability (BAM7 + Foretinib; first compound 5 µM) | relative viability (BAM7 + Foretinib; first compound 15.81 µM) | relative viability (BAM7 + Foretinib; first compound 50 µM) | relative viability ([1]; first compound 0.01 µM) | relative viability ([1]; first compound 0.03162 µM) | relative viability ([1]; first compound 0.1 µM) | relative viability ([1]; first compound 0.3162 µM) | relative viability ([1]; first compound 1 µM)
1 | NCI-H2126 | 1.18 | 1.05 | 0.889 | 0.923 | 0.829 | 0.885 | 0.806 | 0.817 | 0.863
2 | EMC-BAC-2 | 0.974 | 1.04 | 0.985 | 1.05 | 0.297 | 0.287 | 0.268 | 0.255 | 0.262
3 | NCI-H1993 | 0.73 | 0.738 | 0.717 | 0.708 | 0.585 | 0.591 | 0.549 | 0.609 | 0.574
4 | NCI-H520 | 0.736 | 0.825 | 0.767 | 0.804 | 0.41 | 0.482 | 0.323 | 0.358 | 0.335
5 | NCI-H647 | 1.4 | 1.2 | 1.16 | 1.21 | 0.26 | 0.326 | 0.255 | 0.312 | 0.396
6 | SK-LU-1 | 0.875 | 0.925 | 0.72 | 0.857 | 0.335 | 0.387 | 0.349 | 0.306 | 0.344
7 | ChaGo-K-1 | 0.806 | 0.928 | 0.724 | 0.983 | 0.216 | 0.245 | 0.228 | 0.248 | 0.248
8 | NCI-H522 |  |  |  |  | 0.56 | 0.55 | 0.52 | 0.517 | 0.564
9 | NCI-H1299 | 1.07 | 1.18 | 1.08 | 1.11 |  |  |  |  | 
10 | NCI-H1650 | 1.34 | 1.2 | 1.01 | 1.04 | 0.398 | 0.474 | 0.44 | 0.403 | 0.44
11 | NCI-H2009 | 1.28 | 1.33 | 1.26 | 1.21 | 0.72 | 0.811 | 0.724 | 0.668 | 0.771
12 | LOU-NH91 | 0.913 | 1.03 | 0.904 | 0.936 | 0.702 | 0.763 | 0.634 | 0.665 | 0.732
13 | NCI-H2405 | 1.04 | 1.12 | 1.02 | 1.04 | 0.768 | 0.806 | 0.692 | 0.71 | 0.706
14 | NCI-H1648 |  |  |  |  |  | 0.527 | 0.466 | 0.444 | 0.574
15 | LCLC-97TM1 | 0.975 | 0.963 | 0.935 | 0.883 | 0.203 | 0.31 | 0.211 | 0.271 | 0.204
16 | NCI-H596 | 0.874 | 0.883 | 0.762 | 0.951 | 1.07 | 0.886 | 0.862 | 0.951 | 0.792
17 | NCI-H727 | 0.851 | 1.19 | 0.864 | 0.801 | 0.605 | 0.662 | 0.643 | 0.693 | 0.575
18 | H3255 | 0.774 | 0.868 | 0.806 | 0.858 | 0.549 | 0.646 | 0.63 | 0.547 | 0.615
19 | SK-MES-1 | 0.913 | 1.06 | 0.937 | 1.08 | 0.858 | 0.835 | 0.894 | 0.854 | 0.856
